The source made the active and inactive calls. The rule behind the calls is not given here.
System: CCRIS mutagenicity, Ames/micronucleus/aberration tests
Experiment: CCRIS mutagenicity studies

Question: Which results are given for `C1O[C@@H]1[C@@H]1CO1`?
Answer: mutagenic call (Test System: AMES SALMONELLA TYPHIMURIUM, Strain/Indicator: TA1535, Metabolic Activation: RAT, LIVER, S-9, Method: PREINCUBATION): active; positive; mutagenic call (Test System: AMES SALMONELLA TYPHIMURIUM, Strain/Indicator: TA1535, Metabolic Activation: RAT, LIVER, S-9, Method: STANDARD PLATE): active; positive; mutagenic call (Test System: AMES SALMONELLA TYPHIMURIUM, Strain/Indicator: TA1537, Metabolic Activation: HAMSTER, LIVER, S-9, AROCLOR 1254, Method: PREINCUBATION): inactive; negative; mutagenic call (Test System: AMES SALMONELLA TYPHIMURIUM, Strain/Indicator: TA1537, Metabolic Activation: HAMSTER, LIVER, S-9, AROCLOR 1254, Method: STANDARD PLATE): inactive; negative; mutagenic call (Test System: AMES SALMONELLA TYPHIMURIUM, Strain/Indicator: TA1537, Metabolic Activation: HAMSTER, LIVER, S-9, Method: PREINCUBATION): inactive; negative; mutagenic call (Test System: AMES SALMONELLA TYPHIMURIUM, Strain/Indicator: TA1537, Metabolic Activation: HAMSTER, LIVER, S-9, Method: STANDARD PLATE): inactive; negative; mutagenic call (Test System: AMES SALMONELLA TYPHIMURIUM, Strain/Indicator: TA1537, Metabolic Activation: MOUSE, LIVER, S-9, AROCLOR 1254, Method: PREINCUBATION): inactive; negative; mutagenic call (Test System: AMES SALMONELLA TYPHIMURIUM, Strain/Indicator: TA1537, Metabolic Activation: MOUSE, LIVER, S-9, AROCLOR 1254, Method: STANDARD PLATE): inactive; negative; mutagenic call (Test System: AMES SALMONELLA TYPHIMURIUM, Strain/Indicator: TA1537, Metabolic Activation: MOUSE, LIVER, S-9, Method: PREINCUBATION): inactive; negative; mutagenic call (Test System: AMES SALMONELLA TYPHIMURIUM, Strain/Indicator: TA1537, Metabolic Activation: MOUSE, LIVER, S-9, Method: STANDARD PLATE): inactive; negative; mutagenic call (Test System: AMES SALMONELLA TYPHIMURIUM, Strain/Indicator: TA1537, Metabolic Activation: NONE, Method: PREINCUBATION): inactive; negative; mutagenic call (Test System: AMES SALMONELLA TYPHIMURIUM, Strain/Indicator: TA1537, Metabolic Activation: NONE, Method: STANDARD PLATE): inactive; negative; mutagenic call (Test System: AMES SALMONELLA TYPHIMURIUM, Strain/Indicator: TA1537, Metabolic Activation: RAT, LIVER, S-9, AROCLOR 1254, Method: PREINCUBATION): inactive; negative; mutagenic call (Test System: AMES SALMONELLA TYPHIMURIUM, Strain/Indicator: TA1537, Metabolic Activation: RAT, LIVER, S-9, Method: PREINCUBATION): inactive; negative; mutagenic call (Test System: AMES SALMONELLA TYPHIMURIUM, Strain/Indicator: TA1537, Metabolic Activation: RAT, LIVER, S-9, Method: STANDARD PLATE): inactive; negative; mutagenic call (Test System: AMES SALMONELLA TYPHIMURIUM, Strain/Indicator: TA1538, Metabolic Activation: HAMSTER, LIVER, S-9, AROCLOR 1254, Method: PREINCUBATION): inactive; negative; mutagenic call (Test System: AMES SALMONELLA TYPHIMURIUM, Strain/Indicator: TA1538, Metabolic Activation: HAMSTER, LIVER, S-9, AROCLOR 1254, Method: STANDARD PLATE): inactive; negative; mutagenic call (Test System: AMES SALMONELLA TYPHIMURIUM, Strain/Indicator: TA1538, Metabolic Activation: HAMSTER, LIVER, S-9, Method: PREINCUBATION): inactive; negative; mutagenic call (Test System: AMES SALMONELLA TYPHIMURIUM, Strain/Indicator: TA1538, Metabolic Activation: HAMSTER, LIVER, S-9, Method: STANDARD PLATE): inactive; negative; mutagenic call (Test System: AMES SALMONELLA TYPHIMURIUM, Strain/Indicator: TA1538, Metabolic Activation: MOUSE, LIVER, S-9, AROCLOR 1254, Method: PREINCUBATION): inactive; negative; mutagenic call (Test System: AMES SALMONELLA TYPHIMURIUM, Strain/Indicator: TA1538, Metabolic Activation: MOUSE, LIVER, S-9, AROCLOR 1254, Method: STANDARD PLATE): inactive; negative; mutagenic call (Test System: AMES SALMONELLA TYPHIMURIUM, Strain/Indicator: TA1538, Metabolic Activation: MOUSE, LIVER, S-9, Method: PREINCUBATION): inactive; negative; mutagenic call (Test System: AMES SALMONELLA TYPHIMURIUM, Strain/Indicator: TA1538, Metabolic Activation: MOUSE, LIVER, S-9, Method: STANDARD PLATE): inactive; negative; mutagenic call (Test System: AMES SALMONELLA TYPHIMURIUM, Strain/Indicator: TA1538, Metabolic Activation: NONE, Method: PREINCUBATION): inactive; negative; mutagenic call (Test System: AMES SALMONELLA TYPHIMURIUM, Strain/Indicator: TA1538, Metabolic Activation: NONE, Method: STANDARD PLATE): inactive; negative; mutagenic call (Test System: AMES SALMONELLA TYPHIMURIUM, Strain/Indicator: TA1538, Metabolic Activation: RAT, LIVER, S-9, AROCLOR 1254, Method: PREINCUBATION): inactive; negative; mutagenic call (Test System: AMES SALMONELLA TYPHIMURIUM, Strain/Indicator: TA1538, Metabolic Activation: RAT, LIVER, S-9, Method: PREINCUBATION): inactive; negative; mutagenic call (Test System: AMES SALMONELLA TYPHIMURIUM, Strain/Indicator: TA1538, Metabolic Activation: RAT, LIVER, S-9, Method: STANDARD PLATE): inactive; negative; mutagenic call (Test System: E. COLI, Strain/Indicator: WP2 UVRA, Metabolic Activation: HAMSTER, LIVER, S-9, AROCLOR 1254, Method: STANDARD PLATE): inactive; negative; mutagenic call (Test System: E. COLI, Strain/Indicator: WP2 UVRA, Metabolic Activation: HAMSTER, LIVER, S-9, Method: PREINCUBATION): inactive; negative; mutagenic call (Test System: E. COLI, Strain/Indicator: WP2 UVRA, Metabolic Activation: MOUSE, LIVER, S-9, AROCLOR 1254, Method: STANDARD PLATE): inactive; negative; mutagenic call (Test System: E. COLI, Strain/Indicator: WP2 UVRA, Metabolic Activation: MOUSE, LIVER, S-9, Method: STANDARD PLATE): inactive; negative; mutagenic call (Test System: E. COLI, Strain/Indicator: WP2 UVRA, Metabolic Activation: NONE, Method: STANDARD PLATE): inactive; negative; mutagenic call (Test System: E. COLI, Strain/Indicator: WP2 UVRA, Metabolic Activation: RAT, LIVER, S-9, AROCLOR 1254, Method: PREINCUBATION): inactive; negative; mutagenic call (Test System: E. COLI, Strain/Indicator: WP2 UVRA, Metabolic Activation: RAT, LIVER, S-9, Method: PREINCUBATION): inactive; negative; mutagenic call (Test System: E. COLI, Strain/Indicator: WP2 UVRA, Metabolic Activation: RAT, LIVER, S-9, Method: STANDARD PLATE): inactive; negative

— PubChem BioAssay AID1259407 (Chemical Carcinogenesis Research Information System (CCRIS), 2018)
